We go through one molecule from patent US12012408B2, “Purine compounds and method for the treatment of cancer” (THE ROYAL INSTITUTION FOR THE ADVANCEMENT OF …, priority 2018, dated 2024).

In assay [1] the test system is cleaved-PARP, cleaved-caspase 3, Bcl-2 in MDA-MB-231 and BT-20 cells. Put plainly: Western blot of indicators of apoptosis. The assay is classed as cell-based. As to conditions: FIG. 6B. The protocol:
Sub-confluent cells were washed with PBS, lysed in RIPA buffer (50 mM Tris-HCl at pH7.5, 150 mM sodium chloride, 1% tritonX-100, 0.1% SDS, 2 mM EDTA and 25 mM sodium fluoride) supplemented with 1 mM PMSF and protease inhibitor cocktail (Roche) for 10 min on ice and centrifuged (13,000 rpm at 4° C. for 20 min) to separate cell lysate. Cell lysate (50 μg protein, as measured by the Bradford protein assay) was then added with SDS sample buffer (Tris at pH 6.8, 20% glycerol, 5% SDS, bromophenol blue and β-mercaptoethanol) and boiled for 5 min. Samples were then resolved through 13% SDS-PAGE gels, transferred to nitrocellulose membrane, blotted with specific first antibodies at different dilution in cold room overnight, and then amplified with horseradish peroxidase-conjugated secondary antibodies for 1 hour in room temperature and enhanced by chemiluminescence detection system.
Considering apoptosis is the major form of cell death induced by chemotherapeutic agent, we seek to identify whether the anticancer effect of SLLN-15 was mediated via apoptosis in breast cancer cells.

Assay [2] deals with MDA-MB-231 and BT-20 cells. Put plainly: MTT assay (short-term cell viability). The assay is classed as cell-based. As to conditions: time-dependent, SLLN-15 compared with vorinostat; FIG. 6A. The protocol: The short-term effects of SLLN-15 on tumor cell growth were assessed using the 3-(4,5-dimethylthiazol-2-yl)-2,5-diphenylte-trazolium bromide (MTT; Sigma) assay. Cells were seeded at a density of 5000 cells/well in a 96-well plate and treated with SLLN-15 as indicated concentration or DMSO for 24 hours. MTT solution (5 mg/ml in RPMI 1640 medium) was added (20 μl/well), and plates were incubated for 4 hours in dark at 37° C., then the purple formazan crystals were then dissolved in 100 μl MTT solvent (4 mM HCl and 0.1% NP-40 in isopropanol). The plates were read on FLUOstar OPTIMA microplate reader (BMG Labtech, Ortenberg, Germany) at 570 nm. Assays were performed in triplicate on three independent experiments.

For `O=C(CCCCCCC(=O)Nc1ccccc1)NO` [vorinostat, suberoylanilide hydroxamic acid, reference compound], the “indicators of apoptosis: upregulation of cleaved-PARP and cleaved-caspase 3, downregulation of Bcl-2” value in assay [1] was “only detected in vorinostat treated cells”. The “cell viability (MTT)” value in assay [2] is recorded as “markedly decreased cell viability”.
